Legend:
smallflower flatsedge = test: Test B flood test smallflower flatsedge; assay type: in vivo, Cyperus difformis
Method in brief: (§1)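 Each value is a visual injury score relative to controls, with 10 meaning complete control and 0 no effect. Evaluation took place twelve to sixteen days after the 2-leaf-stage plants were treated and kept in the greenhouse.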

purple nutsedge = test: Test B pre/postemergence purple nutsedge; assay type: in vivo, Cyperus rotundus; details: Preemergence
Method in brief: (§2)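 Response is a visual 0-to-10 score relative to untreated plants, where 0 means no effect and 10 means complete control, taken twelve to sixteen days after application. Treatments went onto soil at planting and onto foliage of 1- to 4-leaf plants, using a surfactant-containing non-phytotoxic solvent.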

corn = test: Test B pre/postemergence corn; assay type: in vivo, Zea mays; details: Preemergence
Method in brief: as §2

velvetleaf = test: Test B pre/postemergence velvetleaf; assay type: in vivo, Abutilon theophrasti; details: Preemergence
Method in brief: as §2

morningglory = test: Test B pre/postemergence morningglory; assay type: in vivo, Ipomoea hederacea; details: Preemergence
Method in brief: as §2

duck salad = test: Test B flood test duck salad; assay type: in vivo, Heteranthera limosa
Method in brief: as §1

rape = test: Test B pre/postemergence rape; assay type: in vivo, Brassica napus; details: Preemergence
Method in brief: as §2

cocklebur = test: Test B pre/postemergence cocklebur; assay type: in vivo, Xanthium strumarium; details: Preemergence
Method in brief: as §2

wild oat = test: Test B pre/postemergence wild oat; assay type: in vivo, Avena fatua; details: Preemergence
Method in brief: as §2

sugar beet = test: Test B pre/postemergence sugar beet; assay type: in vivo, Beta vulgaris; details: Preemergence
Method in brief: as §2

crabgrass = test: Test B pre/postemergence crabgrass; assay type: in vivo, Digitaria sanguinalis; details: Preemergence
Method in brief: as §2

pigweed = test: Test B pre/postemergence pigweed; assay type: in vivo, Amaranthus retroflexus; details: Preemergence
Method in brief: as §2

soybean = test: Test B pre/postemergence soybean; assay type: in vivo, Glycine max; details: Preemergence
Method in brief: as §2

bedstraw = test: Test B pre/postemergence bedstraw; assay type: in vivo, Galium aparine; details: Preemergence
Method in brief: as §2

rice = test: Test B flood test rice; assay type: in vivo, Oryza sativa
Method in brief: as §1

blackgrass = test: Test B pre/postemergence blackgrass; assay type: in vivo, Alopecurus myosuroides; details: Preemergence
Method in brief: as §2

bamyardgrass = test: Test B flood test barnyardgrass; assay type: in vivo, Echinochloa crus-galli
Method in brief: as §1

surinam grass = test: Test B pre/postemergence surinam grass; assay type: in vivo, Brachiaria decumbens; details: Preemergence
Method in brief: as §2

wheat = test: Test B pre/postemergence wheat; assay type: in vivo, Triticum aestivum; details: Preemergence
Method in brief: as §2

giant foxtail = test: Test B pre/postemergence giant foxtail; assay type: in vivo, Setaria faberii; details: Preemergence
Method in brief: as §2

[1] = Rate 62 g/ha, flood test species, Pre-emergence, visual evaluation after twelve to sixteen days
[2] = Rate 125 g/ha, under heading Pre-emergence, flood test species, visual evaluation after twelve to sixteen days
[3] = Rate 250 g/ha, Pre-emergence (flood test species), scale 0 to 10, 0 is no effect, 10 is complete control
[4] = Rate 500 g/ha, Pre-emergence section of Table B, 0 to 10 scale (0 no effect, 10 complete control)
[5] = Rate 125 g/ha, scale of 0 to 10 where 0 is no effect and 10 is complete control
[6] = Rate 1000 g/ha, scale 0 to 10 (0 no effect, 10 complete control)
[7] = Rate 250 g/ha, scale 0 to 10 (0 no effect, 10 complete control)
[8] = Rate 500 g/ha, scale of 0 to 10 where 0 is no effect and 10 is complete control

In the case of COP(=O)(CCn1c(=O)on(C(=O)N(c2ccccc2)C(C)C)c1=O)OC [Compound 697], the “Plant response rating, S. Flatsedge (0 to 10 scale, 0 is no effect, 10 is complete control)” value (smallflower flatsedge; [1]) is reported as 0, the “S. Flatsedge plant response rating (0 to 10 scale, 0 is no effect, 10 is complete control)” value (smallflower flatsedge; [2]) is reported as 0 and the “S. Flatsedge plant response rating” value (smallflower flatsedge; [3]) is reported as 0. The “S. Flatsedge plant response rating” value (smallflower flatsedge; [4]) was 0, the “Plant response rating, Nutsedge” value (purple nutsedge; [5]) was 0 and the “Plant response rating, Nutsedge” value (purple nutsedge; [6]) was 0. For the same compound, the “Plant response rating, Corn” value (corn; [5]) was 0, the “Plant response rating, Corn” value (corn; [7]) was 0 and the “Plant response rating, Corn” value (corn; [6]) was 0. The “Plant response rating, Velvetleaf” value (velvetleaf; [5]) was 0, the “Plant response rating, Velvetleaf” value (velvetleaf; [6]) was 2 and the “Plant response rating, Morningglory” value (morningglory; [5]) was 0. For the same compound, the “Plant response rating, Morningglory” value (morningglory; [6]) was 5, the “Plant response rating, Ducksalad (0 to 10 scale, 0 is no effect, 10 is complete control)” value (duck salad; [1]) was 0 and the “Ducksalad plant response rating (0 to 10 scale, 0 is no effect, 10 is complete control)” value (duck salad; [2]) was 0. The “Ducksalad plant response rating” value (duck salad; [3]) was 0, the “Ducksalad plant response rating” value (duck salad; [4]) was 0 and the “Plant response rating, Rape” value (rape; [5]) was 0. The “Plant response rating, Rape” value (rape; [6]) was 0, the “Plant response rating, Cocklebur” value (cocklebur; [7]) was 0 and the “Plant response rating, Cocklebur” value (cocklebur; [8]) was 0. For the same compound, the “Plant response rating, Cocklebur” value (cocklebur; [6]) was 0, the “Plant response rating, Wild oats” value (wild oat; [5]) was 0 and the “Plant response rating, Wild oats” value (wild oat; [6]) was 9. For the same compound, the “Plant response rating, Sugarbeets” value (sugar beet; [5]) was 0, the “Plant response rating, Sugarbeets” value (sugar beet; [6]) was 0 and the “Plant response rating, Crabgrass” value (crabgrass; [5]) was 0. The “Plant response rating, Crabgrass” value (crabgrass; [7]) was 4, the “Plant response rating, Crabgrass” value (crabgrass; [6]) was 9 and the “Plant response rating, Redroot pigweed” value (pigweed; [5]) was 0. The “Plant response rating, Redroot pigweed” value (pigweed; [6]) was 0, the “Plant response rating, Soybean” value (soybean; [5]) was 0 and the “Plant response rating, Soybean” value (soybean; [6]) was 0. The “Plant response rating, Bedstraw” value (bedstraw; [5]) was 0, the “Plant response rating, Bedstraw” value (bedstraw; [7]) was 0 and the “Plant response rating, Bedstraw” value (bedstraw; [8]) was 0. For the same compound, the “Plant response rating, Bedstraw” value (bedstraw; [6]) was 0, the “Plant response rating, Rice (0 to 10 scale, 0 is no effect, 10 is complete control)” value (rice; [1]) was 0 and the “Rice plant response rating (0 to 10 scale, 0 is no effect, 10 is complete control)” value (rice; [2]) was 0. The “Rice plant response rating” value (rice; [3]) was 0, the “Rice plant response rating” value (rice; [4]) was 0 and the “Plant response rating, Blackgrass” value (blackgrass; [5]) was 0. The “Plant response rating, Blackgrass” value (blackgrass; [7]) was 2, the “Plant response rating, Blackgrass” value (blackgrass; [8]) was 6 and the “Plant response rating, Blackgrass” value (blackgrass; [6]) was 10. The “Plant response rating, Barnyardgrass (0 to 10 scale, 0 is no effect, 10 is complete control)” value (bamyardgrass; [1]) was 0, the “Barnyardgrass plant response rating (0 to 10 scale, 0 is no effect, 10 is complete control)” value (bamyardgrass; [2]) was 0 and the “Barnyardgrass plant response rating” value (bamyardgrass; [3]) was 0. For the same compound, the “Barnyardgrass plant response rating” value (bamyardgrass; [4]) was 0, the “Plant response rating, B. signalgrass” value (surinam grass; [5]) was 0 and the “Plant response rating, B. signalgrass” value (surinam grass; [7]) was 0. For the same compound, the “Plant response rating, B. signalgrass” value (surinam grass; [8]) was 5, the “Plant response rating, B. signalgrass” value (surinam grass; [6]) was 9 and the “Plant response rating, Wheat” value (wheat; [5]) was 0. The “Plant response rating, Wheat” value (wheat; [6]) was 7, the “Plant response rating, Giant foxtail” value (giant foxtail; [5]) was 0 and the “Plant response rating, Giant foxtail” value (giant foxtail; [6]) was 10.

— patent publication US6737383B1, “Herbicidal oxadiazolidines” (priority 1999, dated 2004)
